Positions of bridges follow the written chain, without caps; N, C: chain ends. Non-standard residues stand in square brackets, D forms with d. Residues, ends and D or L forms follow the SMILES beside them. ξ: configuration not given here. Tyr(3,5-Br2) = N[C@@H](Cc1cc(Br)c(O)c(Br)c1)C(=O)O; Bip = N[C@@H](Cc1ccc(-c2ccccc2)cc1)C(=O)O; Phe(3-OMe) = COc1cccc(C[C@H](N)C(=O)O)c1; 1Nal = N[C@@H](Cc1cccc2ccccc12)C(=O)O; NMeF = CN[C@@H](Cc1ccccc1)C(=O)O; 3Pal = N[C@@H](Cc1cccnc1)C(=O)O; 4Pal = N[C@@H](Cc1ccncc1)C(=O)O; Cha = N[C@@H](CC1CCCCC1)C(=O)O; Thr(3ξ) = CC(O)[C@H](N)C(=O)O; NMeA = CN[C@@H](C)C(=O)O; Nle = CCCC[C@H](N)C(=O)O; Sar = CNCC(=O)O

Among the data in US20240360178A1, “MACROCYCLIC IMMUNOMODULATORS” (Bristol-Myers Squibb Company, priority 2021, published 2024) are IC50 values, retold here.

T1 sequence (Q15116 25-288): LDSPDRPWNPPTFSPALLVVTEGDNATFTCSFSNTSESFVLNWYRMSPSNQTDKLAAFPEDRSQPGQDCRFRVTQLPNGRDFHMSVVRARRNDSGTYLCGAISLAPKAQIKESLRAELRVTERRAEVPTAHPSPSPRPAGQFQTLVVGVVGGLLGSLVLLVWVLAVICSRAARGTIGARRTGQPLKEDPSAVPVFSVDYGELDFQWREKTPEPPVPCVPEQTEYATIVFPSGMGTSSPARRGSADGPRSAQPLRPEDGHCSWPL

The test addresses T1, human PD-1 (Jurkat-PD-1 cells) / PE-labeled human PD-L1-Ig (Homo sapiens, UniProt Q15116).
T1 construct: expressed in transfected cells; host or cells: Jurkat cell line over-expressing human PD-1
The experiment in a line: Jurkat-PD-1 Cell Binding High-Content Screening Assay (CBA); Jurkat hPD1-PDL1 assay. Conditions: Jurkat cell line over-expressing human PD-1; PE-labeled PD-L1-Ig 20 nM final; compound incubated 2 hours at 37° C.; read-out: Jurkat HPD1-PDL1 IC50. Put shortly:
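Read-out is high-content imaging of PE fluorescence on PD-1-over-expressing Jurkat cells. Cells are first exposed to compound for 2 hours at 37° C in serum-containing DMEM, after which PE-labeled PD-L1-Ig is added at 20 nM final.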
Regarding `COc1cccc(C[C@@H]2NC(=O)[C@H](CC(=O)O)NC(=O)[C@H](Cc3ccc(O)cc3)NC(=O)[C@H](Cc3ccccc3)NC(=O)CSC[C@@H](C(=O)N[C@@H](C)C(N)=O)NC(=O)[C@H](CO)NC(=O)[C@H](C(C)C)NC(=O)[C@H](CC(C)C)NC(=O)[C@H](CC(N)=O)NC(=O)CN(C)C(=O)[C@H](C)N(C)C(=O)[C@H](C(C)C)NC(=O)[C@H](Cc3ccc(-c4ccccc4)cc3)NC(=O)[C@H](CC(C)C)NC2=O)c1` [Example 1106] ({CH2CO}-FYD[Phe(3-OMe)]L[Bip]V[NMeA][Sar]NLVSCA-NH2; thioether N-14), the IC50 is 330 nM.

Consider `CC(C)C[C@@H]1NC(=O)[C@H](Cc2c[nH]c3ccccc23)NC(=O)[C@H](CC(=O)O)NC(=O)[C@H](Cc2ccc(O)cc2)NC(=O)[C@H](Cc2ccncc2)NC(=O)CSC[C@@H](C(=O)NCC(N)=O)NC(=O)[C@H](CO)NC(=O)[C@H](C(C)C)NC(=O)[C@H](CC(C)C)NC(=O)[C@H](CC(N)=O)NC(=O)CN(C)C(=O)[C@H](C)N(C)C(=O)[C@H](C(C)C)NC(=O)[C@H](Cc2ccc(-c3ccccc3)cc2)NC1=O` [Example 1107] ({CH2CO}-[4Pal]YDWL[Bip]V[NMeA][Sar]NLVSCG-NH2; thioether N-14), for which the IC50 turned out to be 340 nM.

As to `CC(C)C[C@@H]1NC(=O)[C@H](Cc2c[nH]c3ccccc23)NC(=O)[C@H](CC(=O)O)NC(=O)[C@H](Cc2ccc(O)cc2)NC(=O)[C@H](Cc2ccccc2)NC(=O)CSC[C@@H](C(=O)N[C@@H](C)C(N)=O)NC(=O)[C@H](CO)NC(=O)[C@H](C(C)C)NC(=O)[C@H](CC(C)C)NC(=O)[C@H](CCC(=O)O)NC(=O)CN(C)C(=O)[C@H](C)N(C)C(=O)[C@H](C(C)C)NC(=O)[C@H](Cc2ccc(-c3ccccc3)cc2)NC1=O` [Example 1108] ({CH2CO}-FYDWL[Bip]V[NMeA][Sar]ELVSCA-NH2; thioether N-14), the 50% inhibitory concentration (IC50) is 340 nM. Consider `CC(C)C[C@@H]1NC(=O)[C@H](Cc2c[nH]c3ccccc23)NC(=O)[C@H](CC(=O)O)NC(=O)[C@H](Cc2ccc(O)cc2)NC(=O)[C@H](Cc2ccccc2)NC(=O)CSC[C@@H](C(=O)NCC(N)=O)NC(=O)[C@H](C(C)O)NC(=O)[C@H](C(C)C)NC(=O)[C@H](CC(C)C)NC(=O)[C@H](CC(N)=O)NC(=O)CN(C)C(=O)[C@H](C)N(C)C(=O)[C@H](C(C)C)NC(=O)[C@H](Cc2ccc(-c3ccccc3)cc2)NC1=O` (stereo partly shown) [Example 1109] ({CH2CO}-FYDWL[Bip]V[NMeA][Sar]NLV[Thr(3ξ)]CG-NH2; thioether N-14), for which the IC50 was found to be 350 nM. The same measure for `CC(C)C[C@@H]1NC(=O)[C@H](Cc2c[nH]c3ccccc23)NC(=O)[C@H](CC(=O)O)NC(=O)[C@H](Cc2ccc(O)cc2)NC(=O)[C@H](Cc2ccccc2)NC(=O)CSC[C@@H](C(=O)NCC(N)=O)NC(=O)[C@H](C)NC(=O)[C@H](C(C)C)NC(=O)[C@H](CC(C)C)NC(=O)[C@H](CC(N)=O)NC(=O)CN(C)C(=O)[C@H](C)N(C)C(=O)[C@H](C(C)C)NC(=O)[C@H](Cc2ccc(-c3ccccc3)cc2)NC1=O` [Example 1110] ({CH2CO}-FYDWL[Bip]V[NMeA][Sar]NLVACG-NH2; thioether N-14): 350 nM; for `CC(C)C[C@@H]1NC(=O)[C@H](CC(N)=O)NC(=O)CN(C)C(=O)[C@H](C)N(C)C(=O)[C@H](C(C)C)NC(=O)[C@H](Cc2ccc(-c3ccccc3)cc2)NC(=O)[C@H](CC(C)C)NC(=O)[C@H](Cc2c[nH]c3ccccc23)NC(=O)[C@H](CC(=O)O)NC(=O)[C@H](Cc2ccc(O)cc2)NC(=O)[C@H](Cc2ccccc2)NC(=O)CSC[C@@H](C(=O)NCC(N)=O)NC(=O)[C@H](CO)NC(=O)[C@H](C)NC1=O` [Example 1111] ({CH2CO}-FYDWL[Bip]V[NMeA][Sar]NLASCG-NH2; thioether N-14): 350 nM; for `CC(C)C[C@@H]1NC(=O)[C@H](CC(N)=O)NC(=O)[C@H](Cc2ccccc2)N(C)C(=O)[C@H](C)N(C)C(=O)[C@H](C(C)C)NC(=O)[C@H](Cc2ccc(-c3ccccc3)cc2)NC(=O)[C@H](C(C)C)NC(=O)[C@H](Cc2c[nH]c3ccccc23)NC(=O)[C@H](CC(=O)O)NC(=O)[C@H](Cc2ccc(O)cc2)NC(=O)[C@H](Cc2ccccc2)NC(=O)CSC[C@@H](C(=O)N[C@@H](C)C(N)=O)NC(=O)[C@H](CO)NC(=O)[C@H](C(C)C)NC1=O` [Example 1112] ({CH2CO}-FYDWV[Bip]V[NMeA][NMeF]NLVSCA-NH2; thioether N-14): 370 nM. The value for `CC(C)C[C@@H]1NC(=O)[C@H](Cc2c[nH]c3ccccc23)NC(=O)[C@H](CC(=O)O)NC(=O)[C@H](Cc2cc(Br)c(O)c(Br)c2)NC(=O)[C@H](Cc2ccccc2)NC(=O)CSC[C@@H](C(=O)N[C@@H](C)C(N)=O)NC(=O)[C@H](CO)NC(=O)[C@H](C(C)C)NC(=O)[C@H](CC(C)C)NC(=O)[C@H](CC(N)=O)NC(=O)CN(C)C(=O)[C@H](C)N(C)C(=O)[C@H](C(C)C)NC(=O)[C@H](Cc2ccc(-c3ccccc3)cc2)NC1=O` [Example 1113] ({CH2CO}-F[Tyr(3,5-Br2)]DWL[Bip]V[NMeA][Sar]NLVSCA-NH2; thioether N-14) was 370 nM; that for `CC(C)C[C@@H]1NC(=O)[C@H](CCCNC(=N)N)NC(=O)[C@H](Cc2ccccc2)N(C)C(=O)[C@H](C)N(C)C(=O)[C@H](C(C)C)NC(=O)[C@H](Cc2ccc(-c3ccccc3)cc2)NC(=O)[C@H](C(C)C)NC(=O)[C@H](Cc2c[nH]c3ccccc23)NC(=O)[C@H](CC(=O)O)NC(=O)[C@H](Cc2ccc(O)cc2)NC(=O)[C@H](Cc2ccccc2)NC(=O)CSC[C@@H](C(=O)N[C@@H](C)C(N)=O)NC(=O)[C@H](CO)NC(=O)[C@H](C(C)C)NC1=O` [Example 1115] ({CH2CO}-FYDWV[Bip]V[NMeA][NMeF]RLVSCA-NH2; thioether N-14) was 400 nM; that for `CC(C)C[C@@H]1NC(=O)[C@H](Cc2cccc3ccccc23)NC(=O)[C@H](CC(=O)O)NC(=O)[C@H](Cc2ccc(O)cc2)NC(=O)[C@H](Cc2ccccc2)NC(=O)CSC[C@@H](C(=O)N[C@@H](C)C(N)=O)NC(=O)[C@H](CO)NC(=O)[C@H](C(C)C)NC(=O)[C@H](CC(C)C)NC(=O)[C@H](CC(N)=O)NC(=O)CN(C)C(=O)[C@H](C)N(C)C(=O)[C@H](C(C)C)NC(=O)[C@H](Cc2ccc(-c3ccccc3)cc2)NC1=O` [Example 1116] ({CH2CO}-FYD[1Nal]L[Bip]V[NMeA][Sar]NLVSCA-NH2; thioether N-14) was 400 nM.

As for `CC(C)C[C@@H]1NC(=O)[C@H](Cc2c[nH]c3ccccc23)NC(=O)[C@H](CC(=O)O)NC(=O)[C@H](Cc2ccc(O)cc2)NC(=O)[C@H](CC2CCCCC2)NC(=O)CSC[C@@H](C(=O)NCC(N)=O)NC(=O)[C@H](CO)NC(=O)[C@H](C(C)C)NC(=O)[C@H](CC(C)C)NC(=O)[C@H](CC(N)=O)NC(=O)CN(C)C(=O)[C@H](C)N(C)C(=O)[C@H](C(C)C)NC(=O)[C@H](Cc2ccc(-c3ccccc3)cc2)NC1=O` [Example 1117] ({CH2CO}-[Cha]YDWL[Bip]V[NMeA][Sar]NLVSCG-NH2; thioether N-14), the IC50 was 410 nM. As to `CC(C)C[C@@H]1NC(=O)[C@H](Cc2c[nH]c3ccccc23)NC(=O)[C@H](CC(=O)O)NC(=O)[C@H](Cc2ccc(O)cc2)NC(=O)[C@H](Cc2cccnc2)NC(=O)CSC[C@@H](C(=O)NCC(N)=O)NC(=O)[C@H](CO)NC(=O)[C@H](C(C)C)NC(=O)[C@H](CC(C)C)NC(=O)[C@H](CC(N)=O)NC(=O)CN(C)C(=O)[C@H](C)N(C)C(=O)[C@H](C(C)C)NC(=O)[C@H](Cc2ccc(-c3ccccc3)cc2)NC1=O` [Example 1118] ({CH2CO}-[3Pal]YDWL[Bip]V[NMeA][Sar]NLVSCG-NH2; thioether N-14), the IC50 stood at 420 nM. Take `CC(C)C[C@@H]1NC(=O)[C@H](Cc2c[nH]c3ccccc23)NC(=O)[C@H](CC(=O)O)NC(=O)[C@H](Cc2ccc(O)cc2)NC(=O)[C@H](Cc2ccccc2)NC(=O)CSC[C@@H](C(=O)N[C@@H](C)C(N)=O)NC(=O)[C@H](CO)NC(=O)[C@H](C(C)C)NC(=O)[C@H](CC(C)C)NC(=O)[C@H](CC(N)=O)NC(=O)CN(C)C(=O)[C@H](C)N(C)C(=O)[C@H](CCC(=O)O)NC(=O)[C@H](Cc2ccc(-c3ccccc3)cc2)NC1=O` [Example 1119] ({CH2CO}-FYDWL[Bip]E[NMeA][Sar]NLVSCA-NH2; thioether N-14): the IC50 was determined as 420 nM.

Regarding `CC(C)C[C@@H]1NC(=O)[C@H](Cc2c[nH]c3ccccc23)NC(=O)[C@H](CC(=O)O)NC(=O)[C@H](Cc2ccc(O)cc2)NC(=O)[C@H](Cc2ccccc2)NC(=O)CSC[C@@H](C(=O)NCC(N)=O)NC(=O)[C@H](CO)NC(=O)[C@H](C(C)C)NC(=O)[C@H](CC(C)C)NC(=O)[C@H](CC(N)=O)NC(=O)[C@H](C)N(C)C(=O)[C@H](C)N(C)C(=O)[C@H](C(C)C)NC(=O)[C@H](Cc2ccc(-c3ccccc3)cc2)NC1=O` [Example 1120] ({CH2CO}-FYDWL[Bip]V[NMeA][NMeA]NLVSCG-NH2; thioether N-14), the 50% inhibitory concentration (IC50) was 430 nM. The value for `CCCC[C@@H]1NC(=O)[C@H](CC(N)=O)NC(=O)[C@H]2CCCN2C(=O)[C@H](C)N(C)C(=O)[C@H](C(C)C)NC(=O)[C@H](Cc2ccc(-c3ccccc3)cc2)NC(=O)[C@H](CC(C)C)NC(=O)[C@H](Cc2c[nH]c3ccccc23)NC(=O)[C@H](CC(=O)O)NC(=O)[C@H](Cc2ccc(O)cc2)NC(=O)[C@H](Cc2ccccc2)NC(=O)CSC[C@@H](C(=O)N[C@@H](C)C(N)=O)NC(=O)[C@H]([C@@H](C)O)NC(=O)[C@H](CCCNC(=N)N)NC1=O` [Example 1121] ({CH2CO}-FYDWL[Bip]V[NMeA][dP]N[Nle]RTCA-NH2; thioether N-14) was 430 nM; that for `CC(C)C[C@@H]1NC(=O)[C@H](CCCNC(=N)N)NC(=O)[C@H]2CCCN2C(=O)[C@H](C)N(C)C(=O)[C@H](CCCNC(=N)N)NC(=O)[C@H](Cc2ccc(-c3ccccc3)cc2)NC(=O)[C@H](C(C)C)NC(=O)[C@H](Cc2c[nH]c3ccccc23)NC(=O)[C@H](CC(=O)O)NC(=O)[C@H](Cc2ccc(O)cc2)NC(=O)[C@H](Cc2ccccc2)NC(=O)CSC[C@@H](C(=O)N[C@@H](C)C(N)=O)NC(=O)[C@H](CO)NC(=O)[C@H](C(C)C)NC1=O` [Example 1122] ({CH2CO}-FYDWV[Bip]R[NMeA][dP]RLVSCA-NH2; thioether N-14) was 430 nM.
